# Patent US20140045807A2, “THE USE OF 3-METHOXY-PREGNENOLONE FOR THE PREPARATION OF A DRUG FOR TREATING A TRAUMATIC BRAIN INJURY” (priority 2004, published 2014)
# How the values were obtained:
# Androgen Receptor (AR) = Androgen Receptor (AR) (Rattus norvegicus, UniProt P15207); assay: Radioligand binding assay, AR; conditions: MAP4343 10 μM; 1.5 nM [^3H] Mibolerone; Rat recombinant E. coli
# Experimental: Binding affinity of 3-methoxy-PREG (MAP4343) for receptors of steroid hormones was evaluated using radioligand binding assays.
# CCI traumatized animals = assay: Water Exploration Test (WET) after Controlled Cortical Impact (CCI); assay type: in vivo, rat; design: key to Time spent in CZ, Conclusion vs. CCI-D0: ↓ ↓ ↓: decrease of analyzed variable with p < 0.001; ?: stability of analyzed variable; ↑: increase in analyzed variable with p < 0.05; key to Entry number in CZ, Conclusion vs. CCI-D0: ↓: decrease of analyzed variable with p < 0.05; ?: stability of analyzed variable; ↑ ↑: increase in analyzed variable with p < 0.01; conditions: for Entry number in CZ, Mean / Time spent in CZ, Mean: C-D0 = 100
# Experimental: Male Sprague-Dawley rats of […] are used. There were 12 animals per group for all in vivo experiments (WET, MRI) except for the CHI injury which requested 17 animals per group because of the post-trauma mortality rate. Each group was then split in two subgroups of 6 individuals for all post-mortem analysis (biochemical, histological and immunohistological analysis.
# CCI was performed with an electromagnetic impact device as described (MyNeurolab, St. Louis, Mo.; Brody et al. 2007). Anesthesized rats were subjected to a single right lateral CCI, with the following parameters: impact centered 4.0 mm anterior to lambda and 4.5 mm […] of midline, within the craniotomy of the animal. The impact was set at a velocity of 4 m/s with a sustained depression of 200 ms, using a 5.0 mm tip.
# The […] is a rat, the more time it will spend “floating” (null velocity) in the central zone (see Fares-2009).
# More precisely, a circular tank (180 cm diameter, 60 cm high) is filled with water maintained at 27° C. to a depth of 40 cm. The water is made opaque by adding black gouache, allowing the VideoTrack system (ViewPoint) to detect the white-coloured rat. This tank is divided into 4 identical quadrants (6,358 cm2 each) using two 180 cm long opaque plastic separators. In each quadrant, one rat is introduced with its head facing the corner between the separator and the tank's wall. It is noteworthy to emphasize that 4 rats can be tested simultaneously using the 4 quadrants. Using the VideoTrack system, we draw two virtual areas: a large one delineates the whole quadrant in which the rat is placed, the so-called Full Quadrant (FQ) and a small one that delineates a central zone (CZ). The CZ, having the same shape as the FQ, measures 2,921 cm2, and is considered to be anxiogenic for animals. Thus, the distance, the number of entries, the time spent, and the velocity profile in the CZ are measured to assess anxiety-like behaviour. In addition, the total distance traveled in the FQ represents an indicator of motor activity. The duration of each trial is 5 minutes.
# The effect of 3-methoxy-PREG (MAP4343) on anxiety induced by trauma was analyzed using the WET test.
# [1] = tested on: human neuroblastoma HS-SY5Y cells; assay: Cytotoxicity of okadaic acid, steroid protection (LDH release); assay type: cell-based; conditions: 24 hours, simultaneous addition, increasing concentrations
# Text: FIG. 6: Toxicity of okadaic acid. Steroid protection. […] Cell death was indicated by the release of lactate dehydrogenase (LDH) in the culture medium.
# Okadaic acid is a protein phosphatase inhibiter. Thus, the hyperphosphorylation of tau protein is implicated in microtubule depolymerization and in human neuroblastoma HS-SY5Y cell death. The exposure of SY5Y cell cultures to okadaic acid does in fact cause significant cell death.
# PSD95 = assay: Western blot of PSD95 in cortex and hippocampus after CCI; assay type: in vivo, rat; conditions: 20 mg/kg, first injection 2 h post-trauma, day 35, ipsilateral injured cortex and hippocampus, contralateral cortex
# Experimental: FIG. 20: PSD-95 expression, 35 days after TBI, in the left-uninjured and right-injured hemispheres (A: cortex and B: hippocampus) of CCI-injured animals, receiving either vehicle (D0) or MAP4343 (D1: 10 mg/kg and D2:20 mg/kg), 2 h after injury.
# Samples were analyzed by Western-blot at day 35 post-trauma (D35) to evaluate the effects of MAP4343 on: MAP2 (the target of MAP4343 and a modulator of microtubule function), the post-synaptic markers PSD95 and spinophilin, the pre-synaptic marker synaptophysin, and the axonal growth/integrity marker GAP43.
# Western blot was performed on cortex and hippocampus of TBI-injured animals receiving the first injection of MAP4343 (at 10 mg/kg or 20 mg/kg) or vehicle (sesame oil) 2 h after injury.
# The expression level of various neuronal brain markers of plasticity was measured at day 35 post-trauma by western-blots in the cortex and hippocampus of left uninjured and right injured cerebral hemispheres of CCI traumatized animals receiving either vehicle (sesame oil, CCI-D0) or 3-methoxy-PREG (MAP4343) at 10 mg/kg (CCI-D1) or 20 mg/kg (CCI-D2), with first MAP4343 injection 2 h post-trauma.
# [2] = Day 7, CCI-D1, 10 mg/kg from 24 hours post-trauma
# [3] = Day 7, CCI-D2, 20 mg/kg from 24 hours post-trauma
# [4] = Day 27, CCI-D1, 10 mg/kg from 24 hours post-trauma
# [5] = Day 27, CCI-D2, 20 mg/kg from 24 hours post-trauma
# Chain of Androgen Receptor (AR) (P15207 whole entry S389L): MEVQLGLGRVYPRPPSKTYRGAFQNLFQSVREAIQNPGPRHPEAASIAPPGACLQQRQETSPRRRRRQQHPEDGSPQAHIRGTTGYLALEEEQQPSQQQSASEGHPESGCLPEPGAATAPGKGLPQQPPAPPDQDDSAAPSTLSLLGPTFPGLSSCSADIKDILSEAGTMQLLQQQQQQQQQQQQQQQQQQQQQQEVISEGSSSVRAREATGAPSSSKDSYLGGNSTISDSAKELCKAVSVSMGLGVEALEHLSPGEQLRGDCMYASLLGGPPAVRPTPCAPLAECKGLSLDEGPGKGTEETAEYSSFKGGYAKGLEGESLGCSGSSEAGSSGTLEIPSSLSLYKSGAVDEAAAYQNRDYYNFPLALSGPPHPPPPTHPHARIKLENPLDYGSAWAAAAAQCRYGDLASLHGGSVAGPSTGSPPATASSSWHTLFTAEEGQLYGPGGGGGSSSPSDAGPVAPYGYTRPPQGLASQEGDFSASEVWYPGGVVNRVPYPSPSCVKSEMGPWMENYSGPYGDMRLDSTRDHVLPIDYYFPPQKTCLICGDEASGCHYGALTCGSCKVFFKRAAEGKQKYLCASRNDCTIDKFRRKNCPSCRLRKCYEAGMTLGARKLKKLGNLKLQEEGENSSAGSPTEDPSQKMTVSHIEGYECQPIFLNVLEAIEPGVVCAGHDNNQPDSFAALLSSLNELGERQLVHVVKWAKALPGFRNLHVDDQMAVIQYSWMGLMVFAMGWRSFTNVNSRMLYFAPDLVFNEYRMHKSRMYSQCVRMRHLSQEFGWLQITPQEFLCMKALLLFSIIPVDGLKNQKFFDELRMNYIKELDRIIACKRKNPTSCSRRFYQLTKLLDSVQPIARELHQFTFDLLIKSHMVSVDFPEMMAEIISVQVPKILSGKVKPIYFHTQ
smiles,measurement,setting,value
"CO[C@H]1CC[C@@]2(C)C(=CC[C@H]3[C@@H]4CC[C@H](C(C)=O)[C@@]4(C)CC[C@@H]32)C1 [3-methoxy-PREG, 3β-methoxy-pregna-5-ene-20-one]",% inhibition of specific binding,Androgen Receptor (AR),< 25%
same,"Entry number in CZ, Mean",CCI traumatized animals; [2],64
same,"Time spent in CZ, Mean",CCI traumatized animals; [2],48
same,"Time spent in CZ, Conclusion vs. CCI-D0","CCI traumatized animals; Day 7, CCI-D2, 20 mg/kg",↑
same,"Entry number in CZ, Mean",CCI traumatized animals; [3],73
same,"Time spent in CZ, Mean",CCI traumatized animals; [3],66
same,"Entry number in CZ, Mean",CCI traumatized animals; [4],79
same,"Time spent in CZ, Mean",CCI traumatized animals; [4],86
same,"Entry number in CZ, Conclusion vs. CCI-D0","CCI traumatized animals; Day 27, CCI-D2, 20 mg/kg",↑ ↑
same,"Time spent in CZ, Conclusion vs. CCI-D0","CCI traumatized animals; Day 27, CCI-D2, 20 mg/kg",↑
same,"Entry number in CZ, Mean",CCI traumatized animals; [5],114
same,"Time spent in CZ, Mean",CCI traumatized animals; [5],95
same,anxiety induced by CCI trauma,"CCI traumatized animals; as early as day 7, in particular at 20 mg/kg (D2)",alleviated
same,cell death caused by okadaic acid (LDH release),[1],"the same effect, only much stronger"
same,PSD95 expression,PSD95,increase in PSD95 expression
